Read-outs that look alike come from different tables or passages of the source.
Legend:
Candida glabrata [1] = experiment: MIC/MFC broth microdilution (CLSI); details: Nakaseomyces glabratus, CBS138;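 note: broth microdilution following CLSI M27-Ed4, MFC taken as the lowest drug level yielding no growth once MIC wells were subcultured on SDA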
Procedure: (§1) Antifungal susceptibility was determined by broth microdilution according to the CLSI guidelines described in M27-Ed4 ([16]). […] MFC was determined by back-plating drug-treated cultures from MIC broths onto SDA plates. The MFC was defined as the lowest concentration from which no colonies could be cultured.

[2] = tested on: Cryptococcus deuterogattii; experiment: checkerboard drug interaction (FICI, MICc);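 for all read-outs here: simplified diagonal checkerboard screen pairing antifungal drugs with FPPS inhibitors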; assay type: cell-based; details: C. deuterogattii; for INH FD (MIC-MICc fold decrease): fold decrease of inhibitor MIC
Procedure: (§2) Drug interactions between antifungals and FPPS inhibitors were investigated using a simplified checkerboard diagonal screening method ([45]). […] FICIs were determined according to the Loewe additivity model ([17]).

Trichophyton rubrum [3] = experiment: MIC/MFC broth microdilution (CLSI); details: Trichophyton rubrum
Procedure: as §1

Aspergillus fumigatus [4] = experiment: MIC/MFC broth microdilution (CLSI); details: ATCC204305
Procedure: as §1

eight fungal species [5] = experiment: checkerboard interaction with azoles, summary across the eight species; assay type: cell-based; details: geometric mean MIC in combination with azoles
Excerpt: Synergy between lipophilic FPPS inhibitors and azole antifungals was investigated by determining the fractional inhibitory concentration index (FICI) (Fig. 2; Table S1 Fig. S1) ([17]). […]. Derivatives PLA9 and 11, and PDA9, 11, and 12 antagonized azoles in C. albicans, C. neoformans, and C. deuterogattii, yet were largely synergistic in C. glabrata and S. cerevisiae. […].

Trichophyton rubrum [6] = experiment: checkerboard drug interaction (FICI, MICc);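 note: simplified diagonal checkerboard screen pairing azole antifungals with FPPS inhibitors, FICI calculated under the Loewe additivity model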; assay type: cell-based; details: T. rubrum
Procedure: as §2

Cryptococcus neoformans [7] = experiment: MIC/MFC broth microdilution (CLSI); details: Cryptococcus neoformans;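 note: susceptibility testing followed the CLSI M27-Ed4 broth microdilution document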
Procedure: as §1

eight fungal species [8] = experiment: MIC/MFC summary across the eight fungal species of Table 1; assay type: cell-based
Procedure: The antifungal activity of these compounds was evaluated according to CLSI guidelines ([16]).

Cryptococcus neoformans [9] = experiment: checkerboard drug interaction (FICI, MICc);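 for all read-outs here: antifungal plus FPPS inhibitor pairs tested against Cryptococcus neoformans by simplified diagonal checkerboard screening, FICI computed under the Loewe additivity model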; assay type: cell-based; details: C. neoformans; for INH FD (MIC-MICc fold decrease): fold decrease of inhibitor MIC
Procedure: as §2

[10] = tested on: Cryptococcus deuterogattii; experiment: MIC/MFC broth microdilution (CLSI); details: Cryptococcus deuterogattii;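 note: broth microdilution per CLSI M27-Ed4. MFC is the lowest concentration yielding no colonies when MIC broths are subcultured onto SDA plates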
Procedure: as §1

HEK-293T cells = experiment: MTT reduction cytotoxicity assay; assay type: cell-based; details: Homo sapiens, HEK-293T, 72 h, HEK-293T, MTT, 72 h; read-out: HEK IC50
Candida albicans [11] = experiment: MIC/MFC broth microdilution (CLSI); assay type: cell-based; details: Candida albicans SC5314
Procedure: as §1

Aspergillus fumigatus [12] = experiment: checkerboard drug interaction (FICI, MICc); assay type: cell-based;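 note: simplified diagonal checkerboard screen pairing antifungals with FPPS inhibitors against Aspergillus fumigatus, with FICI calculated under the Loewe additivity model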
Procedure: as §2

Saccharomyces cerevisiae [13] = experiment: MIC/MFC broth microdilution (CLSI); assay type: cell-based; details: Saccharomyces cerevisiae S288c
Procedure: as §1

Aspergillus flavus [14] = experiment: checkerboard drug interaction (FICI, MICc);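 note: simplified diagonal checkerboard screen pairing azole antifungals with FPPS inhibitors, FICI calculated under the Loewe additivity model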; assay type: cell-based; design: INH MICc (KET:INH) / INH MICc (FLC:INH): unit not given beside the values; details: A. flavus
Candida albicans [15] = experiment: checkerboard drug interaction (FICI, MICc);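 for all read-outs here: antifungal plus FPPS inhibitor combinations on Candida albicans tested by a simplified diagonal checkerboard screen, with FICI calculated under the Loewe additivity model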; assay type: cell-based; details: C. albicans; for INH FD (MIC-MICc fold decrease): fold decrease of inhibitor MIC
Procedure: as §2

Saccharomyces cerevisiae [16] = experiment: checkerboard drug interaction (FICI, MICc); assay type: cell-based; design: INH MICc / INH MICc (ITR:INH) / INH MICc (KET:INH) / INH MICc (FLC:INH): unit not given beside the values;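 note: simplified diagonal checkerboard screen pairing antifungals with FPPS inhibitors, FICI calculated under the Loewe additivity model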
Aspergillus flavus [17] = experiment: MIC/MFC broth microdilution (CLSI); details: ATCC204304
Procedure: as §1

Candida glabrata [18] = experiment: checkerboard drug interaction (FICI, MICc);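 for all read-outs here: simplified diagonal checkerboard screen pairing antifungals with FPPS inhibitors, FICI calculated under the Loewe additivity model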; assay type: cell-based; details: C. glabrata; for INH FD (MIC-MICc fold decrease): fold decrease of inhibitor MIC
Procedure: as §2

[19] = FLC:INH combination, MIC of the inhibitor in combination with FLC
[20] = FLC:INH combination, fold decrease of FLC MIC
[21] = ITR:INH combination, MIC of the inhibitor in combination with ITR
[22] = ITR:INH combination, fold decrease of ITR MIC
[23] = KET:INH combination, MIC of the inhibitor in combination with KET
[24] = KET:INH combination, fold decrease of KET MIC
[25] = Fractional Inhibitory Concentration Index, fluconazole + inhibitor
[26] = Fractional Inhibitory Concentration Index, itraconazole + inhibitor
[27] = Fractional Inhibitory Concentration Index, ketoconazole + inhibitor
[28] = MIC of the inhibitor in combination with fluconazole
[29] = MIC of the inhibitor in combination with itraconazole
[30] = MIC of the inhibitor in combination with ketoconazole
[31] = MIC-MICc fold decrease of fluconazole, negative = increase
[32] = MIC-MICc fold decrease of itraconazole, negative = increase
[33] = MIC-MICc fold decrease of ketoconazole, negative = increase
[34] = MIC-MICc fold decrease of the inhibitor, with fluconazole
[35] = MIC-MICc fold decrease of the inhibitor, with itraconazole
[36] = MIC-MICc fold decrease of the inhibitor, with ketoconazole

CCCCCCCCCCCN1CCC[C@H]1C(=O)N[C@H](CC(=O)O)C(=O)O [PDA11]
MFC (Candida glabrata [1]): > 128 µg/mL | MIC (Candida glabrata [1]): > 128 µg/mL | FICI ([2]; FLC:INH combination): ≥4 | INH MICc [2, 19]: 256 | FLC FD (MIC-MICc fold decrease) [2, 20]: -4 | INH FD (MIC-MICc fold decrease) ([2]; FLC:INH combination): 1 | FICI ([2]; ITR:INH combination): ≥4 | INH MICc [2, 21]: 256 | ITR FD (MIC-MICc fold decrease) [2, 22]: < -4 | INH FD (MIC-MICc fold decrease) ([2]; ITR:INH combination): 1 | FICI ([2]; KET:INH combination): 1 | INH MICc [2, 23]: 128 | KET FD (MIC-MICc fold decrease) [2, 24]: 2 | INH FD (MIC-MICc fold decrease) ([2]; KET:INH combination): 2 | MFC (Trichophyton rubrum [3]): > 128 µg/mL | MIC (Trichophyton rubrum [3]): > 128 µg/mL | MFC (Aspergillus fumigatus [4]): > 128 µg/mL | MIC (Aspergillus fumigatus [4]): > 128 µg/mL | GM fungal MICc (eight fungal species [5]): 78.3 | FICI (FLC:INH) (Trichophyton rubrum [6]; [25]): 3 | FICI (ITR:INH) (Trichophyton rubrum [6]; [26]): 2 | FICI (KET:INH) (Trichophyton rubrum [6]; [27]): 3 | INH MICc (FLC:INH) (Trichophyton rubrum [6]; [28]): 256 | INH MICc (ITR:INH) (Trichophyton rubrum [6]; [29]): 256 | INH MICc (KET:INH) (Trichophyton rubrum [6]; [30]): 256 | FLC FD (FLC:INH) (Trichophyton rubrum [6]; [31]): -2 | ITR FD (ITR:INH) (Trichophyton rubrum [6]; [32]): 1 | KET FD (KET:INH) (Trichophyton rubrum [6]; [33]): -2 | INH FD (FLC:INH) (Trichophyton rubrum [6]; [34]): 1 | INH FD (ITR:INH) (Trichophyton rubrum [6]; [35]): 1 | INH FD (KET:INH) (Trichophyton rubrum [6]; [36]): 1 | MFC (Cryptococcus neoformans [7]): > 128 µg/mL | MIC (Cryptococcus neoformans [7]): > 128 µg/mL | MFC (eight fungal species [8]; across eight species, read-out: Geometric mean MFC): > 128 µg/mL | MIC (eight fungal species [8]; geometric mean across eight species, read-out: GM fungal MIC): > 128 µg/mL | MIC (eight fungal species [8]; read-out: Geometric mean MIC): > 128 µg/mL | FICI (Cryptococcus neoformans [9]; FLC:INH combination): ≥4 | INH MICc (Cryptococcus neoformans [9]; [19]): 256 | FLC FD (MIC-MICc fold decrease) (Cryptococcus neoformans [9]; [20]): < -4 | INH FD (MIC-MICc fold decrease) (Cryptococcus neoformans [9]; FLC:INH combination): 1 | FICI (Cryptococcus neoformans [9]; ITR:INH combination): ≥4 | INH MICc (Cryptococcus neoformans [9]; [21]): 256 | ITR FD (MIC-MICc fold decrease) (Cryptococcus neoformans [9]; [22]): < -4 | INH FD (MIC-MICc fold decrease) (Cryptococcus neoformans [9]; ITR:INH combination): 1 | FICI (Cryptococcus neoformans [9]; KET:INH combination): ≥4 | INH MICc (Cryptococcus neoformans [9]; [23]): 128 | KET FD (MIC-MICc fold decrease) (Cryptococcus neoformans [9]; [24]): -4 | INH FD (MIC-MICc fold decrease) (Cryptococcus neoformans [9]; KET:INH combination): 2 | MFC [10]: > 128 µg/mL | MIC [10]: > 128 µg/mL | IC50 (HEK-293T cells): > 256 µg/mL | MFC (Candida albicans [11]): > 128 µg/mL | MIC (Candida albicans [11]): > 128 µg/mL | FICI (FLC:INH) (Aspergillus fumigatus [12]; [25]): 2 | FICI (ITR:INH) (Aspergillus fumigatus [12]; [26]): 0.51 | FICI (KET:INH) (Aspergillus fumigatus [12]; [27]): 1.5 | INH MICc (FLC:INH) (Aspergillus fumigatus [12]; [28]): 256 | INH MICc (ITR:INH) (Aspergillus fumigatus [12]; [29]): 2 | INH MICc (KET:INH) (Aspergillus fumigatus [12]; [30]): 128 | FLC FD (FLC:INH) (Aspergillus fumigatus [12]; [31]): 1 | ITR FD (ITR:INH) (Aspergillus fumigatus [12]; [32]): 2 | KET FD (KET:INH) (Aspergillus fumigatus [12]; [33]): 1 | INH FD (FLC:INH) (Aspergillus fumigatus [12]; [34]): 1 | INH FD (ITR:INH) (Aspergillus fumigatus [12]; [35]): 128 | INH FD (KET:INH) (Aspergillus fumigatus [12]; [36]): 2 | MFC (Saccharomyces cerevisiae [13]): > 128 µg/mL | MIC (Saccharomyces cerevisiae [13]): > 128 µg/mL | FICI (FLC:INH) (Aspergillus flavus [14]; [25]): 1 | FICI (ITR:INH) (Aspergillus flavus [14]; [26]): 2 | FICI (KET:INH) (Aspergillus flavus [14]; [27]): 0.75 | INH MICc (FLC:INH) (Aspergillus flavus [14]; [28]): 128 | INH MICc (ITR:INH) (Aspergillus flavus [14]; [29]): 256 | INH MICc (KET:INH) (Aspergillus flavus [14]; [30]): 64 | FLC FD (FLC:INH) (Aspergillus flavus [14]; [31]): 2 | ITR FD (ITR:INH) (Aspergillus flavus [14]; [32]): 1 | KET FD (KET:INH) (Aspergillus flavus [14]; [33]): 2 | INH FD (FLC:INH) (Aspergillus flavus [14]; [34]): 2 | INH FD (ITR:INH) (Aspergillus flavus [14]; [35]): 1 | INH FD (KET:INH) (Aspergillus flavus [14]; [36]): 4 | FICI (Candida albicans [15]; FLC:INH combination): ≥4 | INH MICc (Candida albicans [15]; [19]): 128 | FLC FD (MIC-MICc fold decrease) (Candida albicans [15]; [20]): < -4 | INH FD (MIC-MICc fold decrease) (Candida albicans [15]; FLC:INH combination): 2 | FICI (Candida albicans [15]; ITR:INH combination): ≥4 | INH MICc (Candida albicans [15]; [21]): 128 | ITR FD (MIC-MICc fold decrease) (Candida albicans [15]; [22]): < -4 | INH FD (MIC-MICc fold decrease) (Candida albicans [15]; ITR:INH combination): 2 | FICI (Candida albicans [15]; KET:INH combination): ≥4 | INH MICc (Candida albicans [15]; [23]): 64 | KET FD (MIC-MICc fold decrease) (Candida albicans [15]; [24]): < -4 | INH FD (MIC-MICc fold decrease) (Candida albicans [15]; KET:INH combination): 4 | FICI (FLC:INH) (Saccharomyces cerevisiae [16]; [25]): 0.5 | FICI (ITR:INH) (Saccharomyces cerevisiae [16]; [26]): 1.5 | FICI (KET:INH) (Saccharomyces cerevisiae [16]; [27]): 0.5 | INH MICc (FLC:INH) (Saccharomyces cerevisiae [16]; [28]): 64 | INH MICc (ITR:INH) (Saccharomyces cerevisiae [16]; [29]): 128 | INH MICc (KET:INH) (Saccharomyces cerevisiae [16]; [30]): 64 | FLC FD (FLC:INH) (Saccharomyces cerevisiae [16]; [31]): 4 | ITR FD (ITR:INH) (Saccharomyces cerevisiae [16]; [32]): 1 | KET FD (KET:INH) (Saccharomyces cerevisiae [16]; [33]): 4 | INH FD (FLC:INH) (Saccharomyces cerevisiae [16]; [34]): 4 | INH FD (ITR:INH) (Saccharomyces cerevisiae [16]; [35]): 2 | INH FD (KET:INH) (Saccharomyces cerevisiae [16]; [36]): 4 | MFC (Aspergillus flavus [17]): > 128 µg/mL | MIC (Aspergillus flavus [17]): > 128 µg/mL | FICI (Candida glabrata [18]; FLC:INH combination): 0.63 | INH MICc (Candida glabrata [18]; [19]): 8 | FLC FD (MIC-MICc fold decrease) (Candida glabrata [18]; [20]): 2 | INH FD (MIC-MICc fold decrease) (Candida glabrata [18]; FLC:INH combination): 32 | FICI (Candida glabrata [18]; ITR:INH combination): 0.28 | INH MICc (Candida glabrata [18]; [21]): 2 | ITR FD (MIC-MICc fold decrease) (Candida glabrata [18]; [22]): 4 | INH FD (MIC-MICc fold decrease) (Candida glabrata [18]; ITR:INH combination): 128 | FICI (Candida glabrata [18]; KET:INH combination): 0.28 | INH MICc (Candida glabrata [18]; [23]): 2 | KET FD (MIC-MICc fold decrease) (Candida glabrata [18]; [24]): 4 | INH FD (MIC-MICc fold decrease) (Candida glabrata [18]; KET:INH combination): 128

— publication PMC12892976, “Alkylation-based optimization of antifungal FPPS inhibitors yields a potent, broad-spectrum lipophilic zoledronate derivative” (mBio, 2025)
